Results on 2 compounds are retold here after article PMC5505983, “Naringenin Impairs Two-Pore Channel 2 Activity And Inhibits VEGF-Induced Angiogenesis” (Scientific Reports, 2017).

One assay addresses T1, hTPC1 (Homo sapiens, UniProt Q9ULQ1).
T1 construct: gene TPCN1; full-length with C-terminal EGFP, plasmid pSAT-hTPC1-EGFP; transiently expressed in vacuoles of Arabidopsis thaliana tpc1-2 mutant mesophyll protoplasts; dimer
The assay can be described thus: whole-vacuole patch clamp, current activation. Format: biochemical. The following applies: activator; 90 nM cytosolic side; diC8 form; pH 7.5 cytosolic, pH 5.5 vacuolar. On the technique in general: The patch-clamp technique gives a direct electrical read-out from membranes.

The target in a further assay is T2, hTPC2 (Homo sapiens, UniProt Q8NHX9).
T2 construct: gene TPCN2; full-length with C-terminal EGFP, plasmid pSAT-hTPC2-EGFP; transiently expressed in vacuoles of Arabidopsis thaliana tpc1-2 mutant mesophyll protoplasts; dimer
The assay can be described thus: whole-vacuole patch clamp, dose-response of current inhibition. Format: cell-based. The following applies: read-out: apparent affinity constant.

T2 sequence (Q8NHX9 whole entry): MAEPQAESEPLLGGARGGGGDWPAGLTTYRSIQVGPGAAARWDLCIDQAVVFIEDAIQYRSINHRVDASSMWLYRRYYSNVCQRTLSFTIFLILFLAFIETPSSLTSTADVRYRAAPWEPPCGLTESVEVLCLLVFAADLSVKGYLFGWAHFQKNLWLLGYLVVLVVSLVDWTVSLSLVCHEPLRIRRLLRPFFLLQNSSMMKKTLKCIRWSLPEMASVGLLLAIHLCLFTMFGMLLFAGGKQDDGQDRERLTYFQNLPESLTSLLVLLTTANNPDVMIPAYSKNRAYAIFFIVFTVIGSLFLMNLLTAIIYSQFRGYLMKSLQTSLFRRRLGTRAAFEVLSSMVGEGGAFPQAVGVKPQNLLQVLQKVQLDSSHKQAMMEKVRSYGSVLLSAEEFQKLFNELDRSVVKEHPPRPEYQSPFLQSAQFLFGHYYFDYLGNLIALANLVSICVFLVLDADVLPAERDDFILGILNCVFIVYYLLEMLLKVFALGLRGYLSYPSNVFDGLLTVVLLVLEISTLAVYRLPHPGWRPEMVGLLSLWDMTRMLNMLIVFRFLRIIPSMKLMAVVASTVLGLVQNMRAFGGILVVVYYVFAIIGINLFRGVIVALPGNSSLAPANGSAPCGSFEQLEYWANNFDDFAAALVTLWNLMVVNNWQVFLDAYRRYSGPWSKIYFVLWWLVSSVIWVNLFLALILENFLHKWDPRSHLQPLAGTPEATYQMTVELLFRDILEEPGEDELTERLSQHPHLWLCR

In the case of `CCCCCCCC(=O)OC[C@H](COP(=O)(O)O[C@@H]1[C@H](O)[C@H](OP(=O)(O)O)[C@@H](O)[C@H](OP(=O)(O)O)[C@H]1O)OC(=O)CCCCCCC` [PI(3,5)P2], the “whole-vacuole patch clamp, current activation” value on hTPC1 is listed as “very small in comparison to those elicited by the addition of the phosphoinositide”.

As to `O=C1C[C@@H](c2ccc(O)cc2)Oc2cc(O)cc(O)c21` [Nar, 5,7-dihydroxy-2-(4-hydroxyphenyl)chroman-4-one], the IC50 at hTPC2 came out at 180 ± 20 µM.
